Entries after “also recorded” stand apart in the source; their conditions may differ. Like-named read-outs stand apart in the source and are kept apart here.
How the values were obtained:
[1] = system: conditions associated with thalamocortical dysrhythmia; assay: TMS/Ketamine combination treatment of patients (Example 1)
Procedure: Thirty-five patients were treated with a combination of ketamine and TMS. […] For simplicity of presentation in Table 2, patients receiving treatment more than once a week are shown as receiving a single treatment for that week. Also, intervals are rounded to the nearest week.
Others received a priming TMS treatment prior to the combination treatment. Some patients received neither pretreatment nor priming, although most patients received one or the other. Since the priming treatment is less rigorous than several days of pretreatment, all patients receiving pretreatment were ultimately switched to priming or neither. Pretreatment and or priming treatment were administered based upon diagnosis and patient compliance.

[2] = system: conditions associated with thalamocortical dysrhythmia; assay: TLVES/Ketamine combination treatment of patients (Example 2); details: all three patients; tACS or tRNS 20 minutes; ketamine total dose 0.5-5.0 mg per kg infused over 15-50 minutes
[3] = system: obsessive-compulsive disorder (OCD); details: OCD patients infused with ketamine; compared with depression and CRPS; Pittenger et al. 2012; cited from earlier work
[4] = system: depression; details: ketamine alone, cited from earlier work
[5] = patient B3, Unipolar Depression & ADD, ketamine combined with TMS
[6] = patient B6, Bipolar Depression, ketamine combined with TMS
[7] = patient B23, Fibromyalgia, PTSD, mixed connective tissue disease, ketamine combined with TMS
[8] = patient B26, Bipolar Disorder, poly-substance abuse, ketamine combined with TMS
[9] = patient C11, Tourette's and secondary depression, ketamine combined with TMS
[10] = patient D8, OCD & secondary depression, ketamine combined with TMS
[11] = patient D20, Depression & frontal lobe disorder, ketamine combined with TMS
[12] = patient H2, Bipolar Depression, ketamine combined with TMS
[13] = patient K10, CRPS & regulatory disorder of childhood, ketamine combined with TMS
[14] = patient N7, Multiple head injuries and depression, ketamine combined with TMS
[15] = patient N13, Bipolar Disorder & chronic neck and back pain, ketamine combined with TMS
[16] = patient N14, Unipolar Depression, ADD, alcohol abuse, concussion, ketamine combined with TMS
[17] = patient N30, Depression, fibromyalgia, back pain, ketamine combined with TMS
[18] = patient O34, ADHD, concussion, back pain, substance abuse, ketamine combined with TMS
[19] = patient Q9, Bipolar Depression, ketamine combined with TMS
[20] = patient R17, Childhood depression, PTSD, poly-substance abuse, ketamine combined with TMS
[21] = patient R32, OCD & secondary depression, poly-substance abuse, ketamine combined with TMS
[22] = patient S1, Generalized anxiety & secondary depression, ketamine combined with TMS
[23] = patient S36, Depression, panic attacks, ketamine combined with TMS
[24] = patient T15, Bipolar Depression, ketamine combined with TMS
[25] = patient T29, Bipolar Disorder, dormant poly-substance abuse, ketamine combined with TMS
[26] = patient W24, Depression, ketamine combined with TMS
[27] = patient Z4, Unipolar Depression & ADD, ketamine combined with TMS
[28] = patient Z27, Childhood onset bipolar disorder, ADD, RSD, ketamine combined with TMS
[29] = patient, Bipolar Disorder, poly-substance abuse, ketamine combined with TMS
[30] = patient, Depression & poly-substance abuse, ketamine combined with TMS
[31] = patient, Unipolar Depression & minor epilepsy, ketamine combined with TMS
[32] = patients having positive outcomes, ketamine combined with TMS

## CNC1(c2ccccc2Cl)CCCCC1=O (racemic) [ketamine, (RS)-2-(2-Chlorophenyl)-2-(methylamino)cyclohexanone]
[1]; all of the 28 patients that completed treatment, of thirty-five treated, ketamine combined with TMS
  Outcome of the patients that completed treatment: positive outcome
[1]; [5]
  Outcome: entered graduate school, got out of abusive relationship
  Overall Response: excellent
[1]; [6]
  Outcome: entered graduate school, began to date for first time
  Overall Response: excellent
[1]; [7]
  Outcome: off pain medicine, calm, more active
  Outcome: adverse effect: experienced severe nausea
  Overall Response: excellent
[1]; [8]
  Outcome: returned to college, got married
  Overall Response: excellent
[1]; [9]
  Outcome: off of inappropriate medicines, calm, in school
  Overall Response: good
[1]; [10]
  Outcome: back to work and active family life
  Overall Response: good
[1]; [11]
  Outcome: depression lifted, apathy lifted, pace of thought improved
  Overall Response: excellent
[1]; [12]
  Outcome: returned to home-life and active mothering
  Overall Response: good
[1]; [13]
  Outcome: off of opioid narcotics, entered trade school, saved subject's life
  Overall Response: excellent
[1]; [14]
  Outcome: off of all opioid narcotics, back to church life
  Overall Response: excellent
[1]; [15]
  Outcome: off of all opioid narcotics, calm, walking well
  Overall Response: very good
[1]; [16]
  Outcome: calm, repaired broken business & family life, sober
  Overall Response: very good
[1]; [17]
  Outcome: off opioid narcotics, not depressed, traveling
  Overall Response: excellent
[1]; [18]
  Outcome: did very well, significant other coaxed subject back to substance; also recorded: abuse
  Overall Response: excellent
[1]; [19]
  Outcome: back to work, repaired broken marriage
  Overall Response: excellent
[1]; [20]
  Outcome: learned to read, entered college, sober
  Overall Response: excellent
[1]; [21]
  Outcome: sober, calm, back to college
  Overall Response: excellent
[1]; [22]
  Outcome: returned to college, sober
  Overall Response: excellent
[1]; [23]
  Outcome: did very well, repaired broken marriage and family
  Overall Response: excellent
[1]; [24]
  Outcome: back to church life and active family life
  Overall Response: excellent
[1]; [25]
  Outcome: entered graduate school, running family business, still sober
  Overall Response: excellent
[1]; [26]
  Outcome: back to work and active family life
  Overall Response: excellent
[1]; [27]
  Outcome: no longer bedridden, left bad marriage
  Overall Response: very good
[1]; [28]
  Outcome: sober, calm, entered college and at work part-time
  Overall Response: very good
[1]; [29]
  Outcome: calm, still in early stage of treatment
  Overall Response: very good
[1]; [30]
  Outcome: sober, active with family business
  Overall Response: excellent
[1]; [31]
  Outcome: relapsed
  Overall Response: good
[1]; [32]
  Adverse side effects: reduced adverse side effects
  Durability of the positive result: more robust, i.e., long lasting, positive result; also recorded: lasting result
[1]; patients that completed treatment, ketamine combined with TMS
  Percentage of patients with positive outcome compared with success rate reported for TMS alone or ketamine alone: higher
[1]; three more frail, less robust patients later given TLVES/ketamine
  Response to previous TMS/ketamine treatment: significantly improved
[2]
  Post-treatment fatigue compared with TMS/ketamine: less of the post-treatment fatigue
  Therapeutic benefit compared with TMS/ketamine: same therapeutic benefits as TMS/ketamine
[3]
  Benefit in OCD patients: rather more limited
[4]
  Lasting relief from suicidality or depression: highly transitory
[4]; dosages reportedly 5-15 times higher than with TMS
  Success rate in the treatment of depression: 60-70%
[4]; listed as Ketamine
  Lasting relief from suicidality or depression: does not, however, appear to provide lasting relief from suicidality or depression
[4]; patients with bipolar disorder who have not responded to anti-depressants
  Effectiveness in treating depression: effective
[4]; persons with major depressive disorder (and bipolar depression)
  Time to rapid antidepressant effect: two

Reference: patent US10716950B2, “Treatment of thalamocortical dysrhythmia” (priority 2012, dated 2020)
